Where “and” joins values, the source holds several entries; their conditions need not be identical. Equal values may be shown once.
Tests used:
L1210 [1] = assay: Antitumor activity against mouse L1210 cells […] in ip dosed C3H X DBA2 F1 hybrid mouse on day 0 and dosed at LD10 level once daily on days 1 to 5 assessed as increase in life span relative to control; format: functional
Mus musculus = assay: Toxicity in ip dosed C3H X DBA2 F1 hybrid mouse […] with mouse L1210 cells on day 0 and dosed once daily on days 1 to 5 measured after 50 days; format: organism-based; conditions: in vivo, 1200 h
[2] = Displacement of ethidium from poly[d(G-C)]-poly[d(G-C)] DNA (unknown origin) by fluorimetric method
[3] = Displacement of ethidium from poly[d(A-T)]-poly[d(A-T)] DNA by fluorimetric method
[4] = Lipophilic-hydrophilic balance, Rm of the compound by partition chromatography; format: physicochemical
Bos taurus = species: Bos taurus; assay: Displacement of ethidium from calf thymus DNA by fluorimetric method
L1210 [5] = assay: Antitumor activity against mouse L1210 cells […] in ip dosed C3H X DBA2 F1 hybrid mouse on day 0 and dosed once daily on days 1 to 5 assessed as increase in life span relative to control; format: functional

SMILES	log(ILSmax) (L1210 [1])	LD10 (Mus musculus) [mg/kg]	C50 [2]	C50 [3]	Rm [4]	C50 (Bos taurus)	D40 (L1210 [5]) [mg/kg]
C[n+]1ccc(Nc2ccc(NC(=O)c3ccc(Nc4nc[n+](C)c5ccc(N)cc45)cc3)cc2)cc1.Cc1ccc(S(=O)(=O)[O-])cc1.Cc1ccc(S(=O)(=O)[O-])cc1	<1.4	3	1.7 µM	0.5 µM	0.13	0.88 µM	–
CCCC[n+]1ccc(Nc2ccc(NC(=O)c3ccc(Nc4cc[n+](CCCC)c5ccccc45)cc3)cc2)cc1.[Br-].[Br-]	<1.4	11	2.8 µM	0.19 µM	1.14	2.1 µM	–
CCC[n+]1ccccc1-c1ccc(NC(=O)c2ccc(C(=O)Nc3ccc(-c4cccc[n+]4CCC)cc3)cc2)cc1.Cc1ccc(S(=O)(=O)[O-])cc1.Cc1ccc(S(=O)(=O)[O-])cc1	<1.4	11	2.9 µM	0.83 µM	0.4	2.2 µM	–
C[n+]1ccc(Nc2ccc(NC(=O)CCCCCCC(=O)Nc3ccc(Nc4cc[n+](C)cc4)cc3)cc2)cc1.[Br-].[Br-]	<1.4	30	75 µM	20 µM	0.59	40 µM	–
CCCCC[n+]1cccc(NC(=O)c2ccc(NC(=O)c3ccc(C(=O)Nc4ccc(C(=O)Nc5ccc[n+](CCCCC)c5)cc4)cc3)cc2)c1.Cc1ccc(S(=O)(=O)[O-])cc1.Cc1ccc(S(=O)(=O)[O-])cc1	<1.4	70	0.92 µM	0.42 µM	0.9	0.38 µM	–
C[n+]1ccc(Nc2ccc(NC(=O)c3ccc(C(=O)Nc4ccc(C(=O)Nc5ccc[n+](C)c5)cc4)cc3)cc2)cc1	–	–	0.97 µM and 1.35 µM	0.34 µM and 0.44 µM	–	0.63 µM and 0.84 µM	–
Cn1cc(NC(=O)c2cc(NC(=O)c3cc(NC=O)cn3C)cn2C)cc1C(=O)NCCC(=N)N	–	–	2.4 µM	0.07 µM	–	0.68 µM	–
C[n+]1ccc(Nc2ccc(NC(=O)CCCCCC(=O)Nc3ccc(Nc4cc[n+](C)cc4)cc3)cc2)cc1.[Br-].[Br-]	<1.4	30	77 µM	22 µM	0.49	42 µM	–
C[n+]1ccc(Nc2ccc(C(=O)Nc3ccc(Nc4cc[n+](C)c5ccccc45)cc3N)cc2)cc1.[Br-].[Br-]	<1.4	7	2.05 µM	0.64 µM	0.35	1.87 µM	–
Cc1cc(C(=O)Nc2ccc(C(=O)Nc3ccc[n+](C)c3)cc2)c(C)cc1C(=O)Nc1ccc(C(=O)Nc2ccc[n+](C)c2)cc1.Cc1ccc(S(=O)(=O)[O-])cc1.Cc1ccc(S(=O)(=O)[O-])cc1	1.43	1.7	14 µM	8.1 µM	0.48	7.8 µM	–
Cc1c[n+](C)c2ccccc2c1Nc1ccc(C(=O)Nc2ccc(Nc3cc[n+](C)cc3)cc2)cc1.[Br-].[Br-]	<1.4	5	15 µM	4.5 µM	0.6	4.9 µM	–
C[n+]1cccc(NC(=O)c2ccc(NC(=O)c3ccc(C(=O)Nc4ccc(C(=O)Nc5ccc[n+](C)c5)c(Cl)c4)cc3)cc2Cl)c1.Cc1ccc(S(=O)(=O)[O-])cc1.Cc1ccc(S(=O)(=O)[O-])cc1	<1.4	26	2.1 µM	0.99 µM	0.2	1.4 µM	–
C/C(=C(/C)c1ccc(Nc2cc[n+](C)c3ccc(N)cc23)cc1)c1ccc(Nc2cc[n+](C)cc2)cc1.[Cl-].[Cl-]	1.53	5.5	2.6 µM	0.9 µM	0.96	1.7 µM	–
Cc1cc(Nc2ccc(NC(=O)c3ccc(C(=O)Nc4ccc(C(=O)Nc5ccc[n+](C)c5)cc4)cc3)cc2)nc(N)[n+]1C.[I-].[I-]	<1.4	20	0.49 µM	0.26 µM	-0.6	0.4 µM	–
CCC[n+]1cc(-c2ccc(NC(=O)c3ccc(C(=O)Nc4ccc(-c5c[n+](CCC)c(N)nc5N)cc4)cc3)cc2)c(N)nc1N.Cc1ccc(S(=O)(=O)[O-])cc1.Cc1ccc(S(=O)(=O)[O-])cc1	2.15	50	–	–	-0.08	–	7
CC[n+]1ccc(-c2ccc(NC(=O)c3ccc(Nc4cc[n+](CC)c5ccccc45)cc3)cc2)cc1.Cc1ccc(S(=O)(=O)[O-])cc1.Cc1ccc(S(=O)(=O)[O-])cc1	1.98	10	–	–	0.55	–	2.7

SMILES	log(ILSmax) (L1210 [1])	LD10 (Mus musculus) [mg/kg]	C50 [2]	C50 [3]	Rm [4]	C50 (Bos taurus)	D40 (L1210 [5]) [mg/kg]
CCC[n+]1ccc(Nc2ccc(NC(=O)c3ccc(C(=O)Nc4ccc(Nc5cc[n+](CCC)cc5)cc4)cc3)cc2)cc1.Cc1ccc(S(=O)(=O)[O-])cc1.Cc1ccc(S(=O)(=O)[O-])cc1	1.99	4.1	–	–	0.81	–	0.6
CC[n+]1ccc(Nc2ccc(NC(=O)c3ccc(Nc4cc[n+](CC)c5ccccc45)cc3N)cc2)cc1.[I-].[I-]	1.95	53	–	–	0.65	–	11.9
CCC[n+]1cccc2cc(NC(=O)c3ccc(NC(=O)c4ccc(C(=O)Nc5ccc6c(ccc[n+]6CCC)c5)cc4)cc3)ccc21.Cc1ccc(S(=O)(=O)[O-])cc1.Cc1ccc(S(=O)(=O)[O-])cc1	1.92	95	–	–	-0.21	–	38
CCC[n+]1cccc2cc(NC(=O)c3ccc(-c4ccc(-c5ccc(-c6ccc(C(=O)Nc7ccc8c(ccc[n+]8CCC)c7)cc6)cc5)cc4)cc3)ccc21.Cc1ccc(S(=O)(=O)[O-])cc1.Cc1ccc(S(=O)(=O)[O-])cc1	2.01	45	–	–	0.49	–	17
CCC[n+]1cccc2cc(NC(=O)c3ccc(C(=O)Nc4ccc(NC(=O)c5ccc6c(ccc[n+]6CCC)c5)cc4)cc3)ccc21.Cc1ccc(S(=O)(=O)[O-])cc1.Cc1ccc(S(=O)(=O)[O-])cc1	2.08	80	–	–	0	–	60
Cc1cc(Nc2ccc(C(=O)Nc3ccc(Nc4cc[n+](C)cc4)cc3)c(N)c2)c2cc(N)ccc2[n+]1C.[I-].[I-]	2.2	110	–	–	0.16	–	8.4
C[n+]1cc(-c2ccc(NC(=O)c3ccc(C(=O)Nc4ccc(-c5c[n+](C)c(N)nc5N)cc4)cc3)cc2)c(N)nc1N.Cc1ccc(S(=O)(=O)[O-])cc1.Cc1ccc(S(=O)(=O)[O-])cc1	2.22	12	–	–	-0.42	–	1.5
CCC[n+]1cccc(-c2ccc(NC(=O)c3ccc(C(=O)Nc4ccc(-c5ccc(-c6ccc(-c7ccc[n+](CCC)c7)cc6)cc5)cc4)cc3)cc2)c1.Cc1ccc(S(=O)(=O)[O-])cc1.Cc1ccc(S(=O)(=O)[O-])cc1	2.16	59	–	–	-0.25	–	4
COCC[n+]1cccc2cc(NC(=O)c3ccc(C(=O)Nc4ccc5c(ccc[n+]5CCOC)c4)cc3)ccc21.Cc1ccc(S(=O)(=O)[O-])cc1.Cc1ccc(S(=O)(=O)[O-])cc1	2.04	17	–	–	0.4	–	11
CC[n+]1cccc(NC(=O)c2ccc(NC(=O)/C=C/c3ccc(C(=O)Nc4ccc(C(=O)Nc5ccc[n+](CC)c5)cc4)cc3)cc2)c1.Cc1ccc(S(=O)(=O)[O-])cc1.Cc1ccc(S(=O)(=O)[O-])cc1	1.88	55	–	–	-0.58	–	22
C[n+]1ccc(Nc2ccc(NC(=O)c3ccc(C(=O)Nc4ccc(C(=O)Nc5ccc[n+](C)c5)cc4)cc3)cc2)cc1.[I-].[I-]	2.12	4.5	–	–	-0.12	–	0.5
CC[n+]1ccc(Nc2ccc(NC(=O)c3ccc(C(=O)Nc4ccc(Nc5cc[n+](CC)c(N)n5)cc4)cc3)cc2)nc1N.Cc1ccc(S(=O)(=O)[O-])cc1.Cc1ccc(S(=O)(=O)[O-])cc1	2.06	112	–	–	-0.3	–	10
C[n+]1cccc(NC(=O)c2ccc(NC(=O)c3ccc(C(=O)Nc4ccc(C(=O)Nc5ccc[n+](C)c5)cc4)cc3)cc2)c1.Cc1ccc(S(=O)(=O)[O-])cc1.Cc1ccc(S(=O)(=O)[O-])cc1	2.13	56	–	–	-0.74	–	5.9
CC[n+]1ccc(Nc2ccc(C(=O)Nc3ccc(/C(C)=N/NC(=N)N)cc3)c(N)c2)c2cc(N)ccc21.Cc1ccc(S(=O)(=O)O)cc1.Cc1ccc(S(=O)(=O)[O-])cc1	2.32	50	–	–	-0.2	–	6
C[n+]1cccc(NC(=O)c2ccc(NC(=O)c3ccc(C(=O)Nc4ccc(C(=O)Nc5ccc[n+](C)c5)cc4)cc3)cc2)c1.[I-].[I-]	2.02	17	–	–	-0.12	–	7.5
CCC[n+]1cccc2cc(NC(=O)c3ccc(C(=O)Nc4ccc5c(ccc[n+]5CCC)c4)c(N)c3)ccc21.Cc1ccc(S(=O)(=O)[O-])cc1.Cc1ccc(S(=O)(=O)[O-])cc1	1.92	10	–	–	0.25	–	3.9

Source: ChEMBL document CHEMBL3228010, “Potential antitumor agents. 29. Quantitative structure-activity relationships for the antileukemic bisquaternary ammonium heterocycles” (J Med Chem, 1979)
